Test results: patent publication US20080206447A1, “ORGANIC-ELECTROLUMINESCENCE-MATERIAL-CONTAINING SOLUTION, METHOD FOR FORMING ORGANIC ELECTROLUMINESCENCE THIN FILM AND ORGANIC ELECTROLUMINESCENCE DEVICE” (Idemitsu Kosan Co., Ltd., priority 2007, published 2008)

Legend:
Format in all cases: physicochemical
Viscosity of the solvent = conditions: neat solvent, 22 degrees C
Procedure: 100 mg of a compound A represented by the following formula was put into a sample bottle, and a solvent was dropped thereinto while stirring until the compound A was completely dissolved. The solubility of the compound A in the solvent was calculated from an amount of the dropped solvent. The viscosity of the solvent was measured at the temperature of 22 degrees C.

[1] = Solubility in 4-isopropylbiphenyl at 0.5 wt % by visual check; design: key to Solubility: A: solution that contained no insoluble element; B: solution that contained insoluble element(s); conditions: for Solubility in 4-isopropylbiphenyl (in words): 0.5 wt %; for Solubility: added to 4-isopropylbiphenyl at 0.5 wt %, visual check
From the text: The results are shown in Table 2, where solution that contained no insoluble element is rated as “A” while solution that contained insoluble element(s) is rated as “B”.

[2] = Solvent solubility of para-substituted naphthacene compound; conditions: solvent not stated

Compound	Solubility [1]	Viscosity (Viscosity of the solvent) [cP]	also measured
CC(C)(C)c1ccccc1 [t-butylbenzene]		1.2	
c1ccc(-c2c3ccccc3c(-c3ccccc3)c3c(-c4ccccc4)c4ccccc4c(-c4ccccc4)c23)cc1 [Compound N]	B		Solubility in 4-isopropylbiphenyl (in words) [1]: lower solubility than the compounds J, K
c1ccc(-c2c3ccccc3c(-c3cccc(-c4cccc(-c5c6ccccc6c(-c6ccccc6)c6ccccc56)c4)c3)c3ccccc23)cc1 [Compound I]	B		Solubility in 4-isopropylbiphenyl (in words) [1]: low solubility
CCCCCCCCCCCCc1ccccc1 [dodecylbenzene]		4.5	
xylene		0.76	
Cc1cc(C)cc(C)c1 [mesitylene]		0.76	
c1ccc(C2CCCCC2)cc1 [cyclohexyl benzene]		2.6	
c1cc(-c2ccc3ccccc3c2)cc(-c2c3ccccc3c(-c3ccc4cc(-c5ccc6ccccc6c5)ccc4c3)c3ccccc23)c1 [Compound G]	B		Solubility in 4-isopropylbiphenyl (in words) [1]: low solubility
c1ccc(-c2ccc(-c3c4ccccc4c(-c4ccc(-c5ccccc5)cc4-c4ccccc4)c4cc5ccccc5cc34)c(-c3ccccc3)c2)cc1 [drawing 5]			Solubility [2]: ≤ 0.1 wt %
CCc1cccc(-c2ccccc2)c1 [3-ethylbiphenyl]		5.6	
c1cc(-c2ccc(-c3ccc4ccccc4c3)cc2)cc(-c2c3ccccc3c(-c3ccc(-c4cccc5ccccc45)cc3)c3ccccc23)c1 [Compound B]	A		
c1ccc2c(c1)CCCC2 [tetralin]		2.3	
c1ccc(-c2cc(-c3ccccc3)c(-c3c4ccccc4c(-c4ccccc4)c4cc5ccccc5cc34)c(-c3ccccc3)c2)cc1 [Compound K]	A		
c1ccc(-c2ccc(-c3ccccc3)c(-c3ccc(-c4cc(-c5ccccc5)ccc4-c4ccccc4)c4cc5cc6ccccc6cc5cc34)c2)cc1 [Compound J]	A		
Cc1ccccc1 [toluene]		0.65	
Cc1ccc(Cc2ccc(C)c(C)c2)cc1C [1,1-bis(3,4-dimethylphenyl)methane]		33.6	
CC(C)c1ccc(-c2ccccc2)cc1 [4-isopropylbiphenyl]		6.9	
CCC(C)c1ccccc1 (centres unmarked) [s-butylbenzene]		1.0	

Second part, led by results:

Solubility [1]	Compound	Viscosity (Viscosity of the solvent) [cP]	also measured
A	c1ccc2cc(-c3ccc4cc(-c5c6ccccc6c(-c6ccc(-c7cccc8ccccc78)cc6)c6ccccc56)ccc4c3)ccc2c1 [Compound D]		
B	c1cc(-c2ccc3ccccc3c2)cc(-c2c3ccccc3c(-c3cccc4ccccc34)c3ccccc23)c1 [Compound F]		Solubility in 4-isopropylbiphenyl (in words) [1]: low solubility
B	c1ccc(-c2ccc(-c3c4ccccc4c(-c4ccccc4)c4ccccc34)cc2)cc1 [Compound H]		Solubility in 4-isopropylbiphenyl (in words) [1]: low solubility
A	c1ccc2cc(-c3ccc(-c4c5ccccc5c(-c5ccc(-c6cccc7ccccc67)cc5)c5ccccc45)cc3)ccc2c1 [Compound C]		
A	c1ccc(-c2cc(-c3ccc4ccccc4c3)cc(-c3c4ccccc4c(-c4ccc5ccccc5c4)c4ccccc34)c2)cc1 [Compound E]		
B	c1ccc(-c2ccc(-c3c4ccccc4c(-c4ccc(-c5ccccc5)cc4)c4cc5ccccc5cc34)cc2)cc1 [Compound M]		Solubility in 4-isopropylbiphenyl (in words) [1]: low solubility
B	c1ccc(-c2ccc(-c3c4ccccc4c(-c4ccc(-c5ccccc5)cc4-c4ccccc4)c4cc5ccccc5cc34)c(-c3ccccc3)c2)cc1 [Compound L]		Solubility in 4-isopropylbiphenyl (in words) [1]: low solubility
